Several values for one entry are separate records, joined by “and”; a condition that tells them apart may be missing. Identical values can stand only once.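 Briefly, cells in 96-well plates were exposed to five compound concentrations for 48 h, and endpoints were estimated by linear interpolation. The concentration for 50% growth inhibition is given as GI50. At the TGI there is no net growth.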
What was measured:
Assay in all cases: DTP human tumour cell line panel, 48 h
[1] = tested on: DMS 114 small cell lung
[2] = tested on: DMS 273 small cell lung
[3] = tested on: HOP-18 NSCLC
[4] = tested on: HS 578T breast
[5] = tested on: KM20L2 colon
[6] = tested on: MCF7 breast
[7] = tested on: MDA-N
[8] = tested on: RXF-631 renal
[9] = tested on: SNB-78 CNS

Structure (SMILES) | TGI [1] [µM] | TGI [2] [µM] | TGI [3] | TGI [4] [µM] | TGI [5] [µM] | TGI [6] [µM] | TGI [7] [µM] | TGI [8] [µM] | TGI [9] [µM] | GI50 [1] [µM] | GI50 [2] [µM] | GI50 [3] [µM] | GI50 [5] [µM] | GI50 [8] [µM] | GI50 [9] [µM]
CCC1(O)C(=O)OCc2c1cc1n(c2=O)Cc2cc3c(N)cccc3nc2-1 (centres undefined) | 0.504 | 0.209 | 0.903 µM | 22.8 | 20.5 | > 39.7 | 2.57 | 1.62 | > 51.7 |  |  |  |  |  | 
Cc1ccc(NC(=O)C2C(=O)N(c3ccc(C)c(C)c3)C(=O)/C2=N/O)cc1C (centres undefined) | > 100 | > 100 | > 100 µM |  | > 100 |  |  | > 100 | > 100 |  |  |  |  |  | 
O=C(CC(=O)N1N=C(c2ccccc2)C(N=Nc2ccc(Cl)cc2)C1=O)Nc1ccccc1Cl (centres undefined) | > 100 | > 100 | 67.8 µM |  | > 100 |  |  | > 100 | > 100 |  |  |  |  |  | 
COC(=O)c1cc2c(c(C(=O)OC)c1O)C(=O)C=CC2=O | > 78.8 | > 71.6 | 9.1 µM and 29.9 µM |  | > 56.4 |  |  | > 71.2 | > 66.8 | > 9.1 | > 9.1 | 16.3 | > 9.1 | > 9.1 | > 9.1
Nc1c(-c2ccc(Br)cc2)[n+]([O-])c2ccccc2[n+]1[O-] | > 100 | > 100 | > 100 µM |  | > 100 |  |  | > 100 | > 100 |  |  |  |  |  | 
CC(=O)c1ccc(NC(=O)/C(Cc2ccccn2)=N/NC(=O)C[N+](C)(C)C)cc1 | > 100 | > 100 | > 100 µM |  | > 100 |  |  | > 100 | > 100 |  |  |  |  |  | 
O=C1C2=C(CC3C(C2)C3(Br)Br)C(=O)C2=C1CC1C(C2)C1(Br)Br (centres undefined) |  | > 100 | > 100 µM |  | > 100 |  |  | > 100 | > 100 |  |  |  |  |  | 
NCCCNCCSSCCCCS(=O)O | > 100 | > 100 | > 100 µM |  | > 100 |  |  | > 100 | > 100 |  |  |  |  |  | 
CC(C)=CC(=O)N1CCN(C(=O)C=C(C)C)CC1 | > 100 | > 100 | > 100 µM |  | > 100 |  |  | > 100 | > 100 |  |  |  |  |  | 
O=S(O)CCCCSSCCCCSSCCCCS(=O)O | > 100 | > 100 | > 100 µM |  | > 100 |  |  | > 100 | 70.5 |  |  |  |  |  | 
CCCCCCCCCCCCCCCCOP(=O)(O)Oc1ccc(/C=C\c2ccc(OP(=O)(O)OCCCCCCCCCCCCCCCC)cc2)cc1 | 49.4 | 62.4 | > 100 µM |  | > 100 |  |  | > 100 | 91.9 |  |  |  |  |  | 
